The conditions of series [1]: cited from earlier work.
A short description of series [2]: Dialysis assay against PBS (treprostinil release). The conditions noted are these: 5 mL dialyzed against 1 L 1×PBS, 50 kDa MW cutoff membrane. The class given is physicochemical. The method, then:
The results of this study can be used as an indication of which compositions might provide a sustained release profile in vivo.
5 mL of each sample was dialyzed against 1 L of 1×PBS. […] sample was collected and tested by HPLC at different time points (FIG. 7). 250 μL sample was collected at 24 h. Each time a sample was collected, an equal volume of 1×PBS was added to the dialysis bag. Absorbance data was normalized to the calculated dilution factor.

The target of another series is T1, EP2 prostanoid receptor (Homo sapiens, UniProt P43116).
T1 construct: host or cells: CHO-K1
Briefly: GloSensor cAMP assay in CHO-K1 cells co-transfected with EP2 receptor. In kind it is cell-based. The text has this:
A cell based Chinese hamster ovary-K1 (CHO-K1) assay based on the GloSensor™ cAMP assay (Promega) was used to characterize the effect of treprostinil alkyl ester compounds on cAMP levels.
cAMP is a second messenger involved in signal transduction of G-protein coupled receptors (GPCRs) acting through Gα-s and Gα-i proteins. Because the treprostinil receptor is a GPCR, the assay provides an indication of whether the respective prostacyclin composition binds its receptor and activates the GPCR cell signaling cascade.
The GloSensor™ assay harnesses a genetically modified form of firefly luciferase into which a cAMP-binding protein moiety has been inserted. Upon binding of cAMP, a conformational change is induced leading to increased light output.
The EP2 prostanoid receptor was co-transfected with the GloSensor™ plasmid (Promega) into CHO-K1 cells as follows. CHO-K1 cells were harvested when the monoloayer was at 50-90% confluence. First, cells were washed with 5 mL PBS. […] Cell number was determined using a hemacytometer. […]
Following incubation, cells were treated and analyzed. […] Cell number was determined using a hemacytometer. […] Following an overnight incubation at 37° C. and 5% CO2 in a water-jacketed incubator, the cells were ready for use in cAMP response assays. […]
For orientation: Cyclic AMP is a second messenger, typically raised through Gs and lowered through Gi signalling.

The values below come from patent US20150328232A1, “PROSTACYLIN COMPOSITIONS AND METHODS FOR USING THE SAME” (INSMED INCORPRATION, priority 2012, published 2015).

T1 sequence (P43116 whole entry): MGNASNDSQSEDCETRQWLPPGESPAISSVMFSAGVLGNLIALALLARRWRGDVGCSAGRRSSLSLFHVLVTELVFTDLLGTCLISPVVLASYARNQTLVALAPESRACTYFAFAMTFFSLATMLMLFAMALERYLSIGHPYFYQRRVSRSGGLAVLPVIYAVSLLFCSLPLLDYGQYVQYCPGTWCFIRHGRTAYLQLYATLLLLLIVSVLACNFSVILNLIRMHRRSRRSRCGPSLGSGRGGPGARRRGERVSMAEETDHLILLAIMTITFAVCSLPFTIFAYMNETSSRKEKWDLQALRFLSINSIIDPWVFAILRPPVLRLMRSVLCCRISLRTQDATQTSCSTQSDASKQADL

What is called half-life is the time needed for the level to fall by half in the phase considered. Consider `CCCCC[C@H](O)/C=C/[C@@H]1[C@H]2C/C(=C/CCCC(=O)O)O[C@H]2C[C@H]1O` [epoprostenol], for which the half-life in series [1] (in vivo) was 2 to 7 min.

On to `CCCCC[C@H](O)CC[C@@H]1[C@H]2Cc3cccc(OCC(=O)O)c3C[C@H]2C[C@H]1O` [treprostinil], for which the “rate of treprostinil release during dialysis” value in series [2] is recorded as “dialyzed out the fastest”. For the same compound, at EP2 prostanoid receptor, the “sustained cAMP level” value is given as “not exhibited”. Further, the “time to steady state plasma concentrations” value in series [1] (continuous subcutaneous infusion, 1.25 to 22 ng/kg/min) is given as “about 10 hours”. For the same compound, in series [1] (in vivo), the “excreted in urine as identifiable metabolite” value is recorded as 64% and the “excreted in urine as unchanged drug” value is 4%. The decrease of clearance entry in series [1] (patients with hepatic insufficiency) is “up to 80%”. In addition, in series [1] (subcutaneous administration), the absolute bioavailability is 100% and the elimination half-life is 4.6 h. In addition, the “administered drug excreted in urine” value in series [1] (unchanged drug or identifiable metabolite) was “Approximately 79%”.
